The target in assay [1] is BCL-2 (binding to BAK peptide) (Homo sapiens, UniProt P10415). The assay can be described thus: SPR (Biacore) solution inhibition assay, BCL-2 binding to immobilized BAK peptide. The conditions noted are these: biotinylated BAK peptide surface, 56 nM BCL-2, 25° C.; range = high and low IC50 values from multiple experiments; read-out: BCL2_SPR IC50 BAK. The source says: (§1) The present method includes utility of a Surface plasmon resonance (SPR)-based biosensor (Biacore™′ GE Healthcare, Uppsala, Sweden) to characterize BCL-2 inhibitors.
Chain of BCL-2 (binding to BAK peptide) (P10415 whole entry): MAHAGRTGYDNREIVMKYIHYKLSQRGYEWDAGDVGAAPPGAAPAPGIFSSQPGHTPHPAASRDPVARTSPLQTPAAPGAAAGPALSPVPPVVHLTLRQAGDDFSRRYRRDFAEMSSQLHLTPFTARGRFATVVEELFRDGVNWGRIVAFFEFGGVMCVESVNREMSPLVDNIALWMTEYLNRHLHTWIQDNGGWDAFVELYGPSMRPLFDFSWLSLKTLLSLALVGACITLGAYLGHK
(§2) Biacore™ utilizes the phenomenon of surface plasmon resonance (SPR) to detect and measure binding interactions. In a typical Biacore experiment, one of the interacting molecules (ligand) is immobilized on a flexible dextran matrix while the interacting partner (analyte) is allowed to flow across that surface. A binding interaction results in an increase in mass on the sensor surface and a corresponding direct change in the refractive index of the medium in the vicinity of the sensor surface. Changes in refractive index or signal are recorded in resonance units (R.U.) Signal changes due to association and dissociation of complexes are monitored in a non-invasive manner, continuously and in real-time, the results of which are reported in the form of a sensorgram.
(§3) The SPR assay is configured to examine solution inhibition of BCL-2 binding to peptide derivatized sensor surfaces to generate IC50 values as a measure of inhibitor potency.
(§4) Biacore™ A100 (GE Healthcare, Uppsala, Sweden) was used to conduct all experiments reported herein. Sensor surface preparation and all interaction analyses experiments were performed at 25° C. Reagents were purchased from GE Healthcare. Running buffer containing 10 mM Hepes, pH7.4, 150 mM sodium chloride, 1.25 mM Dithiothreitol, 3% Dimethyl sulfoxide and 0.05% polysorbate 20 were utilized throughout all analyses.
(§5) Biotinylated BAK, BAD and NOXA peptides were diluted to 10 nM in running buffer and captured onto a sensor surface pre-derivatized with streptavidin (sensor chip SA) to peptide surface densities in the range 50-100 R.U. Peptide captured surfaces were blocked with 500 μM PEO2-Biotin.
(§6) Interaction analyses were performed by first equilibrating each sample within a 6 point three fold compound dilution series in the range 16 μM to […] with 56 nM BCL-2 for one hour during instrument start-up procedures. Protein compound mixtures were then injected over each peptide surface in parallel for 60 seconds at a flow-rate of 30 μL/min. 56 nM BCL-2 control samples were also prepared and run at regular intervals during the assay. Surface regeneration was performed at the end of each analysis cycle by two 30 second injections of 10 mM Glycine, pH 2.5, 1M Sodium Chloride, 0.05% polysorbate 20. Samples and control compound samples were run in duplicate and controls are also run at regular intervals during the assay to monitor surface and assay performance.
(§7) Data analyses are carried out using Biacore™ A100 evaluation software v1.1 to validate assay quality. Binding level report points were used relative to BCL-2 control samples to calculate % inhibition values for each compound protein mixture. […] The range of data shown in table 1 represents the high and low IC50 values obtained from multiple experiments.
In general terms: In SPR one partner is held on a chip, and binding of the other changes the refractive index at the surface.

The target of assay [2] is BCL-2 (binding to BAD peptide) (Homo sapiens, UniProt P10415). The assay is described as follows: SPR (Biacore) solution inhibition assay, BCL-2 binding to immobilized BAD peptide. The conditions noted are these: biotinylated BAD peptide surface, 56 nM BCL-2, 25° C.; range = high and low IC50 values from multiple experiments; read-out: BCL2_SPR IC50 BAD.
Chain of BCL-2 (binding to BAD peptide) (P10415 whole entry): as above
Excerpt: as §1, §2, §3, §4, §5, §6, §7

The structures appear in SMILES notation.

Take `CCCCN(CCCC)C(=O)c1cc(C)n(-c2ccc(NC(=O)c3cc(C)[nH]n3)cc2C(=O)N2Cc3ccccc3C[C@H]2CO)n1` [Example 109]: the results for the IC50 in assay [1] and in assay [2] were 505 to 525 nM and 477 to 528 nM, respectively. For `CCCCN(CCCC)C(=O)c1cc(C)n(-c2ccc(NC(=O)Cc3cccc(F)c3)cc2C(=O)C2Cc3ccccc3C[C@H]2CO)n1` (some centres unmarked) [Example 75], in that order: 53.2 to 59 nM and 66.6 to 70 nM.

Consider `CCCCN(CCCC)C(=O)c1cc(C)n(-c2ccc(NC(=O)CC3CCCCC3)cc2C(=O)N2Cc3ccccc3C[C@H]2CO)n1` [Example 28], for which the IC50 (as a rule, the concentration needed to halve the response being measured) in assay [1] fell in the range of 291 to 325 nM; in assay [2], 264 to 296 nM. The corresponding values for `CCCCN(CCCC)C(=O)c1cc(C)n(-c2ccc(NC(=O)COc3ccccc3Cl)cc2C(=O)N2Cc3ccccc3C[C@H]2CO)n1` [Example 23] are 3900 to 4170 nM and 4850 to 4930 nM. The corresponding values for `CCCCC(CCCC)C(=O)c1cc(C)n(-c2ccc(NC(=O)C(CC(=O)O)C3CCCCC3)cc2C(=O)N2Cc3ccccc3C[C@H]2CO)n1` (some centres unmarked) [Example 103] are 50.2 to 51.9 nM and 54.1 to 55.9 nM. `CCCCN(CCCC)C(=O)c1cc(C)n(-c2ccc(NC(=O)c3cnc(N4CCCC4)nc3)cc2C(=O)N2Cc3ccccc3C[C@H]2CO)n1` [Example 88]: the IC50 lay in the range of 290 to 393 nM in assay [1] and 388 to 405 nM in assay [2].

As for `CCCCN(CCCC)C(=O)c1cc(C)n(-c2ccc(NC(=O)c3ncoc3-c3ccccc3)cc2C(=O)N2Cc3ccccc3C[C@H]2CO)n1` [Example 44], the IC50 was 236 to 238 nM in assay [1] and 273 to 284 nM in assay [2].

Take `CCCCN(CCCC)C(=O)c1cc(C)n(-c2ccc(NC(=O)CC3NC(=O)NC3=O)cc2C(=O)N2Cc3ccccc3C[C@H]2CO)n1` (some centres unmarked) [Example 111]: the IC50 was in the range of 553 to 566 nM in assay [1] and 763 to 799 nM in assay [2]. As for `CCCCN(CCCC)C(=O)c1cc(C)n(-c2ccc(NC(=O)c3csc(-c4cccc(Cl)c4Cl)n3)cc2C(=O)N2Cc3ccccc3C[C@H]2CO)n1` [Example 144], the IC50 in assay [1] fell in the range of 1260 to 1350 nM; in assay [2], 2630 to 2750 nM. For `CCCCN(CCCC)C(=O)c1cc(C)n(-c2ccc(NC(=O)[C@@H](C)c3ccccc3)cc2C(=O)N2Cc3ccccc3C[C@H]2CO)n1` [Example 52], in that order: 75.5 to 79.1 nM and 84.2 to 88.5 nM.

Consider `CCCCN(CCCC)C(=O)c1cc(C)n(-c2ccc(NC(=O)c3cc(OC)cc([N+](=O)[O-])c3OC)cc2C(=O)N2Cc3ccccc3C[C@H]2CO)n1` [Example 132], for which the IC50 in assay [1] fell in the range of 246 to 248 nM; in assay [2] it was 332 to 338 nM. For `CCCCN(CCCC)C(=O)c1cc(C)n(-c2ccc(NC(=O)C(CC(=O)N3CCCC3)c3ccccc3)cc2C(=O)N2Cc3ccccc3C[C@H]2CO)n1` (some centres unmarked) [Example 27], in that order: 58.5 to 70.9 nM and 61.9 to 66.8 nM. For `CCCCN(CCCC)C(=O)c1cc(C)n(-c2ccc(NC(=O)c3cc4ccccc4cn3)cc2C(=O)N2Cc3ccccc3C[C@H]2CO)n1` [Example 123], in that order: 249 to 279 nM and 293 to 339 nM.

With `CCCCN(CCCC)C(=O)c1cc(C)n(-c2ccc(NC(=O)C(C)c3ccccc3)cc2C(=O)N2Cc3ccccc3C[C@H]2CO)n1` (some centres unmarked) [Example 29], the IC50 in assay [1] fell in the range of 181 to 191 nM; in assay [2] it was 162 to 183 nM. For `CCCCN(CCCC)C(=O)c1cc(C)n(-c2ccc(NC(=O)C(CC(N)=O)c3ccccc3)cc2C(=O)N2Cc3ccccc3C[C@H]2CO)n1` (some centres unmarked) [Example 117], in that order: 67.5 to 71.4 nM and 82.1 to 88.8 nM.

As to `CCCCN(CCCC)C(=O)c1cc(C)n(-c2ccc(NC(=O)OCC)cc2C(=O)N2Cc3ccccc3C[C@H]2CO)n1` [Example 11], the IC50 is 550 to 557 nM in assay [1] and 591 to 599 nM in assay [2]. Turning to `CCCCN(CCCC)C(=O)c1cc(C)n(-c2ccc(NC(=O)c3cn4cc(Cl)ccc4n3)cc2C(=O)N2Cc3ccccc3C[C@H]2CO)n1` [Example 43], the values for the IC50 in assay [1] and in assay [2] were 416 to 491 nM and 527 to 597 nM, respectively. For `CCCCN(CCCC)C(=O)c1cc(C)n(-c2ccc(NC(=O)Cc3noc4ccccc34)cc2C(=O)N2Cc3ccccc3C[C@H]2CO)n1` [Example 121], in that order: 54.4 to 58.5 nM and 61.2 to 66.9 nM.

`CCCCN(CCCC)C(=O)c1cc(C)n(-c2ccc(NC(=O)c3cccn(Cc4ccccc4)c3=O)cc2C(=O)N2Cc3ccccc3C[C@H]2CO)n1` [Example 116]: the results for the IC50 in assay [1] and in assay [2] were 731 to 786 nM and 839 to 856 nM, respectively.

For `CCCCN(CCCC)C(=O)c1cc(C)n(-c2ccc(NC(=O)c3ccc(Oc4ccc(F)cc4)cc3)cc2C(=O)N2Cc3ccccc3C[C@H]2CO)n1` [Example 91], the IC50 in assay [1] was 3740 to 4130 nM; in assay [2], above 16000 nM. For `CCCCN(CCCC)C(=O)c1cc(C)n(-c2ccc(NC(=O)COc3ccccc3)cc2C(=O)N2Cc3ccccc3C[C@H]2CO)n1` [Example 4], in that order: 83.8 to 109 nM and 78.7 to 97.4 nM. For `CCCCN(CCCC)C(=O)c1cc(C)n(-c2ccc(NC(=O)Cc3cccc(OC)c3)cc2C(=O)N2Cc3ccccc3C[C@H]2CO)n1` [Example 69], in that order: 67.3 to 73.9 nM and 91.3 to 101 nM. The corresponding values for `CCCCN(CCCC)C(=O)c1cc(C)n(-c2ccc(NC(=O)C(CC(=O)N(C)C)c3ccccc3)cc2C(=O)N2Cc3ccccc3C[C@H]2CO)n1` (some centres unmarked) [Example 99] are 111 to 144 nM and 130 to 171 nM. As to `CCCCN(CCCC)C(=O)c1cc(C)n(-c2ccc(NC(=O)Cc3ccc(OC)cc3)cc2C(=O)N2Cc3ccccc3C[C@H]2CO)n1` [Example 77], the results for the IC50 in assay [1] and in assay [2] were 55.8 to 64.3 nM and 65.8 to 71 nM, respectively. For `CCCCN(CCCC)C(=O)c1cc(C)n(-c2ccc(NC(=O)Cc3ccc(OC)c(C(F)(F)F)c3)cc2C(=O)N2Cc3ccccc3C[C@H]2CO)n1` [Example 78], in that order: 73.6 to 83.8 nM and 99.9 to 103 nM. As to `CCCCN(CCCC)C(=O)c1cc(C)n(-c2ccc(NC(=O)CC(C)S(=O)(=O)c3ccc(Cl)cc3)cc2C(=O)N2Cc3ccccc3C[C@H]2CO)n1` (some centres unmarked) [Example 90], the concentration for half-maximal inhibition (IC50) was in the range of 159 to 187 nM in assay [1] and 156 to 210 nM in assay [2]. For `CCCCN(CCCC)C(=O)c1cc(C)n(-c2ccc(NC(=O)Cc3c(C)[nH]c4c(F)cccc34)cc2C(=O)N2Cc3ccccc3C[C@H]2CO)n1` [Example 63], in that order: 58.3 to 61.2 nM and 67.4 to 76.1 nM. With `CCCCN(CCCC)C(=O)c1cc(C)n(-c2ccc(NC(=O)CCC3COc4ccccc43)cc2C(=O)N2Cc3ccccc3C[C@H]2CO)n1` (some centres unmarked) [Example 130], the IC50 in assay [1] was 50.2 to 53.1 nM; in assay [2], 60.7 to 61.4 nM. As for `CCCCN(CCCC)C(=O)c1cc(C)n(-c2ccc(NC(=O)c3ncccc3O)cc2C(=O)N2Cc3ccccc3C[C@H]2CO)n1` [Example 62], the IC50 in assay [1] was in the range of 238 to 277 nM; in assay [2] it was 318 to 326 nM. The corresponding values for `CCCCN(CCCC)C(=O)c1cc(C)n(-c2ccc(NC(=O)c3cc(C(C)C)nn3C)cc2C(=O)N2Cc3ccccc3C[C@H]2CO)n1` [Example 47] are 586 to 600 nM and 522 to 594 nM.

Turning to `CCCCN(CCCC)C(=O)c1cc(C)n(-c2ccc(NC(=O)C(CC(=O)OC)c3ccccc3)cc2C(=O)N2Cc3ccccc3C[C@H]2CO)n1` (some centres unmarked) [Example 6], the figures for the IC50 in assay [1] and in assay [2] were 105 to 107 nM and 120 to 121 nM, respectively. The corresponding values for `CCCCN(CCCC)C(=O)c1cc(C)n(-c2ccc(NC(=O)Cc3cccc(Br)c3)cc2C(=O)N2Cc3ccccc3C[C@H]2CO)n1` [Example 138] are 43.8 to 53 nM and 56.1 to 60.8 nM.

Regarding `CCCCN(CCCC)C(=O)c1cc(C)n(-c2ccc(NC(=O)CCNC(C)=O)cc2C(=O)N2Cc3ccccc3C[C@H]2CO)n1` [Example 56], the IC50 was 722 to 725 nM in assay [1] and 1090 nM in assay [2]. The corresponding values for `CCCCN(CCCC)C(=O)c1cc(C)n(-c2ccc(NC(=O)c3ccc4c(c3)N=S=N4)cc2C(=O)N2Cc3ccccc3C[C@H]2CO)n1` [Example 84] are 862 to 957 nM and 1020 to 1040 nM. With `CCCCN(CCCC)C(=O)c1cc(C)n(-c2ccc(NC(=O)c3ccc(Cl)cc3I)cc2C(=O)N2Cc3ccccc3C[C@H]2CO)n1` [Example 82], the IC50 in assay [2] lay within 1330 to 1470 nM. `CCCCN(CCCC)C(=O)c1cc(C)n(-c2ccc(NC(=O)C(CC(=O)N(C)C)c3ccccc3)cc2C(=O)N2Cc3ccccc3C[C@H]2CO)n1` (some centres unmarked) [Example 36]: the IC50 in assay [1] was 111 to 144 nM. For the molecule `CCCCN(CCCC)C(=O)c1cc(C)n(-c2ccc(NC(=O)C(C)C)cc2C(=O)N2Cc3ccccc3C[C@H]2CO)n1` [Example 163], the IC50 in assay [1] was in the range of 481 to 495 nM.

For the origin of these results see US20140357633A1, “COMPOUNDS FOR INHIBITING THE INTERACTION OF BCL2 WITH BINDING PARTNERS” (NOVARTIS AG, priority 2011, published 2014).
